HELM strings list units from the 5' end as sugar, base in round brackets, then linkage (d deoxyribose, r ribose, m 2'-O-methyl, p phosphodiester). [sp] = phosphorothioate linkage

Data set [1] has as its target CTNNB1. Briefly: HEK293-TLR7, 100 nM ASO, then resiquimod.
Data set [2] deals with CTNNB1. Briefly: HEK293-TLR8, 100 nM ASO, then resiquimod.

In the data set with CTNNB1 [1], “RNA1{m(G)[sp].m(G)[sp].m(U)[sp].m(G)[sp].m(G)[sp].d(T)[sp].d(G)[sp].d(G)[sp].d(C)[sp].d(C)[sp].d(A)[sp].d(C)[sp].d(C)[sp].d(C)[sp].d(A)[sp].m(U)[sp].m(C)[sp].m(U)[sp].m(C)[sp].m(A)}$$$$” returned a TLR7 signal (NF-kB luciferase) (% of resiquimod alone) of 75.6. In addition, the TLR8 potentiation (NF-kB luciferase) (fold of resiquimod alone) with CTNNB1 [2] came to 1.11.
For “RNA1{m(G)[sp].m(U)[sp].m(C)[sp].m(C)[sp].m(A)[sp].d(A)[sp].d(G)[sp].d(A)[sp].d(T)[sp].d(C)[sp].d(A)[sp].d(G)[sp].d(C)[sp].d(A)[sp].d(G)[sp].m(U)[sp].m(C)[sp].m(U)[sp].m(C)[sp].m(A)}$$$$”, in that order: 32.6 and 1.96.
Taken in the same sequence, the figures for “RNA1{m(U)[sp].m(A)[sp].m(G)[sp].m(C)[sp].m(G)[sp].d(T)[sp].d(G)[sp].d(T)[sp].d(C)[sp].d(T)[sp].d(G)[sp].d(G)[sp].d(A)[sp].d(A)[sp].d(G)[sp].m(C)[sp].m(U)[sp].m(U)[sp].m(C)[sp].m(C)}$$$$” were 60.3 and 1.56.
“RNA1{m(U)[sp].m(A)[sp].m(U)[sp].m(U)[sp].m(U)[sp].d(T)[sp].d(A)[sp].d(A)[sp].d(G)[sp].d(C)[sp].d(A)[sp].d(T)[sp].d(A)[sp].d(T)[sp].d(T)[sp].m(A)[sp].m(A)[sp].m(A)[sp].m(A)[sp].m(A)}$$$$” showed a TLR7 signal (NF-kB luciferase) (% of resiquimod alone) with CTNNB1 [1] of 62.3. Also, the TLR8 potentiation (NF-kB luciferase) (fold of resiquimod alone) with CTNNB1 [2] was found to be 2.61.
Regarding “RNA1{m(U)[sp].m(C)[sp].m(A)[sp].m(A)[sp].m(A)[sp].d(G)[sp].d(T)[sp].d(A)[sp].d(T)[sp].d(A)[sp].d(T)[sp].d(A)[sp].d(C)[sp].d(C)[sp].d(T)[sp].m(G)[sp].m(U)[sp].m(U)[sp].m(U)[sp].m(U)}$$$$”, the TLR7 signal (NF-kB luciferase) (% of resiquimod alone) with CTNNB1 [1] came out at 64.4. The TLR8 potentiation (NF-kB luciferase) (fold of resiquimod alone) with CTNNB1 [2] stood at 4.27.
Taken in the same sequence, the figures for “RNA1{m(U)[sp].m(C)[sp].m(A)[sp].m(A)[sp].m(U)[sp].d(G)[sp].d(G)[sp].d(G)[sp].d(A)[sp].d(G)[sp].d(A)[sp].d(A)[sp].d(T)[sp].d(A)[sp].d(A)[sp].m(A)[sp].m(G)[sp].m(C)[sp].m(A)[sp].m(G)}$$$$” were 68.9 and 3.97.
Taken in the same sequence, the figures for “RNA1{m(U)[sp].m(C)[sp].m(A)[sp].m(U)[sp].m(U)[sp].d(A)[sp].d(T)[sp].d(A)[sp].d(T)[sp].d(T)[sp].d(T)[sp].d(A)[sp].d(C)[sp].d(T)[sp].d(A)[sp].m(A)[sp].m(A)[sp].m(G)[sp].m(C)[sp].m(U)}$$$$” were 65.5 and 4.22.
For “RNA1{m(U)[sp].m(C)[sp].m(C)[sp].m(A)[sp].m(U)[sp].d(C)[sp].d(C)[sp].d(C)[sp].d(T)[sp].d(T)[sp].d(C)[sp].d(C)[sp].d(T)[sp].d(G)[sp].d(T)[sp].m(U)[sp].m(U)[sp].m(A)[sp].m(G)[sp].m(U)}$$$$”, the TLR7 signal (NF-kB luciferase) (% of resiquimod alone) with CTNNB1 [1] came out at 96.4. For the same substance, the TLR8 potentiation (NF-kB luciferase) (fold of resiquimod alone) in the data set with CTNNB1 [2] worked out at 4.57.
Taken in the same sequence, the figures for “RNA1{m(U)[sp].m(C)[sp].m(U)[sp].m(A)[sp].m(U)[sp].d(T)[sp].d(T)[sp].d(G)[sp].d(T)[sp].d(C)[sp].d(T)[sp].d(A)[sp].d(T)[sp].d(T)[sp].d(T)[sp].m(U)[sp].m(A)[sp].m(U)[sp].m(A)[sp].m(C)}$$$$” were 92.8 and 4.61.
For “RNA1{m(U)[sp].m(C)[sp].m(U)[sp].m(U)[sp].m(A)[sp].d(T)[sp].d(A)[sp].d(A)[sp].d(T)[sp].d(T)[sp].d(A)[sp].d(T)[sp].d(T)[sp].d(G)[sp].d(C)[sp].m(A)[sp].m(A)[sp].m(G)[sp].m(U)[sp].m(G)}$$$$”, in that order: 110 and 4.58.
Taken in the same sequence, the figures for “RNA1{m(U)[sp].m(G)[sp].m(C)[sp].m(U)[sp].m(U)[sp].d(A)[sp].d(T)[sp].d(T)[sp].d(T)[sp].d(T)[sp].d(A)[sp].d(A)[sp].d(G)[sp].d(C)[sp].d(A)[sp].m(U)[sp].m(A)[sp].m(U)[sp].m(U)[sp].m(A)}$$$$” were 66.4 and 2.73.
Turning to “RNA1{m(U)[sp].m(G)[sp].m(G)[sp].m(C)[sp].m(A)[sp].d(G)[sp].d(G)[sp].d(C)[sp].d(T)[sp].d(C)[sp].d(A)[sp].d(G)[sp].d(T)[sp].d(G)[sp].d(A)[sp].m(U)[sp].m(G)[sp].m(U)[sp].m(C)[sp].m(U)}$$$$”, the TLR7 signal (NF-kB luciferase) (% of resiquimod alone) with CTNNB1 [1] is 50.4. In addition, the TLR8 potentiation (NF-kB luciferase) (fold of resiquimod alone) with CTNNB1 [2] amounted to 1.73.
For “RNA1{m(U)[sp].m(G)[sp].m(U)[sp].m(G)[sp].m(G)[sp].d(C)[sp].d(T)[sp].d(T)[sp].d(G)[sp].d(T)[sp].d(C)[sp].d(C)[sp].d(T)[sp].d(C)[sp].d(A)[sp].m(G)[sp].m(A)[sp].m(C)[sp].m(A)[sp].m(U)}$$$$”, in that order: 47.1 and 1.57.
Taken in the same sequence, the figures for “RNA1{m(U)[sp].m(U)[sp].m(A)[sp].m(U)[sp].m(U)[sp].d(T)[sp].d(T)[sp].d(A)[sp].d(A)[sp].d(G)[sp].d(C)[sp].d(A)[sp].d(T)[sp].d(A)[sp].d(T)[sp].m(U)[sp].m(A)[sp].m(A)[sp].m(A)[sp].m(A)}$$$$” were 41.5 and 2.97.
“RNA1{m(U)[sp].m(U)[sp].m(C)[sp].m(A)[sp].m(A)[sp].d(T)[sp].d(G)[sp].d(G)[sp].d(G)[sp].d(A)[sp].d(G)[sp].d(A)[sp].d(A)[sp].d(T)[sp].d(A)[sp].m(A)[sp].m(A)[sp].m(G)[sp].m(C)[sp].m(A)}$$$$”: the TLR7 signal (NF-kB luciferase) (% of resiquimod alone) with CTNNB1 [1] was 32.9. For the same substance, in the data set with CTNNB1 [2], the TLR8 potentiation (NF-kB luciferase) (fold of resiquimod alone) came to 3.03.
Taken in the same sequence, the figures for “RNA1{m(U)[sp].m(U)[sp].m(C)[sp].m(U)[sp].m(G)[sp].d(C)[sp].d(A)[sp].d(G)[sp].d(C)[sp].d(T)[sp].d(T)[sp].d(C)[sp].d(C)[sp].d(T)[sp].d(T)[sp].m(G)[sp].m(U)[sp].m(C)[sp].m(C)[sp].m(U)}$$$$” were 42.7 and 4.06.
Taken in the same sequence, the figures for “RNA1{m(U)[sp].m(U)[sp].m(U)[sp].m(A)[sp].m(U)[sp].d(T)[sp].d(C)[sp].d(A)[sp].d(G)[sp].d(A)[sp].d(T)[sp].d(T)[sp].d(A)[sp].d(C)[sp].d(A)[sp].m(A)[sp].m(U)[sp].m(U)[sp].m(A)[sp].m(A)}$$$$” were 53.4 and 3.68.
Taken in the same sequence, the figures for “RNA1{m(U)[sp].m(U)[sp].m(U)[sp].m(U)[sp].m(A)[sp].d(A)[sp].d(G)[sp].d(C)[sp].d(A)[sp].d(T)[sp].d(A)[sp].d(T)[sp].d(T)[sp].d(A)[sp].d(A)[sp].m(A)[sp].m(A)[sp].m(A)[sp].m(G)[sp].m(G)}$$$$” were 59.4 and 3.67.

The values are drawn from the OligoGym collection.
